Source: publication PMC7397056, “Design, Facile Synthesis and Characterization of Dichloro Substituted Chalcones and Dihydropyrazole Derivatives for Their Antifungal, Antitubercular and Antiproliferative Activities” (Molecules, 2020)
Values after ≈ are worked out from the molar mass of the structure shown.

Tests used:
[1] = Cytotoxic activity on normal cells, MTT assay; type: cell-based
Procedure: (§1) The antiproliferative activity of the compounds was determined their IC50 values. Methotrexate (Mtx; positive control) was used as a reference standard for comparing the antiproliferative activity of the target compounds. The MTT (3-(4,5-dimethylthiazol-2-yl)-2,5-diphenyl tetrazolium bromide) assay was based on the reduction of the soluble MTT (0.5 mg mL^−1, 100 µL) into a blue-purple formazan product, mainly by the activity of mitochondrial reductase enzymes inside the living cells. The prostate cancer cell lines, DU-145 cells, were cultured in Dulbecco’s Modified Eagle Medium (DMEM) media at 37 °C and humidified at 5% CO2. Stock solutions of the test compounds (17–46) were prepared in 0.1% DMSO followed by dilution with sterile water to obtain the desired final concentrations. Briefly, the cells were placed on 96-well plates at 100 µL total volume with the density of 1 × 10^4 cells per well and were allowed to adhere for 24 h. Then the medium was replaced with fresh media containing different dilutions of the test compounds and incubated for additional 48 h at 37 °C in DMEM with 10% fetal bovine serum (FBS) medium. Subsequently, the medium was replaced with 90 μL of fresh DMEM without FBS. The above wells were treated with 10 μL of MTT reagent (5 mg/mL of stock solution in DMEM without FBS) and incubated at 37 °C for 3–4 h. The formed blue formazan crystals were dissolved in 200 μL of DMSO. The optical density was determined at 570 nm using a micro plate reader. The assay was performed in triplicate for three independent experiments. The same experimentation was also done to confirm that the DMSO (negative control) had no effect in the study. The results had good reproducibility between replicate wells with standard errors below 10%. The antiproliferative activity results measured as IC50 values in µg/mL were converted and expressed in µM. Additionally, the cytotoxic activity of the compounds was also measured employing the same protocol discussed above to assess their toxicity on normal human cell lines (L02).

[2] = test system: Mycobacterium tuberculosis H37Rv; assay: Antitubercular activity, broth dilution assay (MIC); type: cell-based; details: for MIC: Mycobacterium tuberculosis, H37RV, 504 h, Middlebrook 7H9 broth, 37 °C, 21 days; for fold more antitubercular activity than the chalcones 14 and 16: 29 vs 14, 31 vs 16
[3] = test system: Candida tropicalis (ATCC-1369); assay: Antifungal activity, serial tube dilution method (MIC); details: for MIC: Candida tropicalis, ATCC1369, 18 h, read-out: Antifungal activity MIC, C. tropicalis, serial tube dilution, 37 °C, 18 h, average of three
[4] = test system: prostate cancer cell lines (DU-145); assay: Antiproliferative activity, MTT assay; type: cell-based; details: Homo sapiens, 48 h, mean ± SD (n = 3)
Procedure: as §1

[5] = test system: Aspergillus niger (ATCC-6275); assay: Antifungal activity, serial tube dilution method (MIC); details: for MIC: Aspergillus niger, ATCC6275, 18 h, read-out: Antifungal activity MIC, A. niger, serial tube dilution, 37 °C, 18 h, average of three
[6] = test system: normal human cell lines (L02); assay: Cytotoxic activity on normal cells, MTT assay; type: cell-based; details: normal human cell line L02
Procedure: as §1

[7] = L02 cells (normal human cell line)

SMILES	IC50 at 48 h [1, 7] [µg/mL]	MIC [2] [µM]	fold better activity than the standard pyrazinamide ([2]; ratio of MICs vs pyrazinamide (MIC 25.34 µM))	melting point [°C]	MIC [3] [µM]	fold improvement in activity over compound 17 (CH3 replaced with CF3), Candida tropicalis ([3]; comparator compound 17) [fold]	IC50 [4] [µM]	MIC [5] [µM]	fold improvement in activity over compound 17 (CH3 replaced with CF3), Aspergillus niger ([5]; comparator compound 17) [fold]	fold more antitubercular activity than the chalcones 14 and 16 [2] [fold]	fold reduction in antitubercular activity compared with chalcone 15 ([2]; comparator compound 15) [fold]	IC50 at 48 h ([1]; normal human cell line L02) [µg/mL]	fold better activity in comparison to fluconazole, Candida tropicalis [3] [fold]	fold improvement in MIC of dihydropyrazole over chalcone 16, Candida tropicalis ([3]; 31 (5.35 µM) vs 16 (14.12 µM)) [fold]	fold better activity in comparison to fluconazole, Aspergillus niger [5] [fold]	fold improvement in MIC of dihydropyrazole over chalcone 16, Aspergillus niger ([5]; 31 (5.35 µM) vs 16 (14.12 µM)) [fold]	Cytotoxic activity IC50, L02 [6] [µg/mL]
FC(F)(F)c1ccc(C2CC(c3ccc(Cl)c(Cl)c3)=NN2c2ccccc2)cc1 (stereo not shown) [Compound 24, 3-(3,4-dichlorophenyl)-1-phenyl-5-(4-trifluoromethylphenyl)-4,5-dihydro-1H-pyrazole]	> 75	3.67 (≈ 1.6 µg/mL)	sevenfold	125	9.18 (≈ 4 µg/mL)	4.6	257 ± 2	9.18 (≈ 4 µg/mL)	4.6	–	–	–	–	–	–	–	–
Clc1ccc(C2=NN(c3ccccc3)C(c3ccc4c(c3)OCO4)C2)cc1Cl (stereo not shown) [Compound 25, 3-(3,4-dichlorophenyl)-1-phenyl-5-(benzo[d][1,3]dioxol-5-yl)-4,5-dihydro-1H-pyrazole]	> 75	60.8 (≈ 25 µg/mL)	–	212	19.4 (≈ 8 µg/mL)	–	131 ± 2	19.4 (≈ 8 µg/mL)	–	–	–	–	–	–	–	–	–
Clc1ccc(C2=NN(c3ccccc3)C(c3ccccn3)C2)cc1Cl (stereo not shown) [Compound 26, 3-(3,4-dichlorophenyl)-1-phenyl-5-(pyridin-2-yl)-4,5-dihydro-1H-pyrazole]	> 75	67.9 (≈ 25 µg/mL)	–	191	21.7 (≈ 8 µg/mL)	–	271 ± 2	21.7 (≈ 8 µg/mL)	–	–	–	–	–	–	–	–	–
Clc1ccc(C2=NN(c3ccccc3)C(c3cccnc3)C2)cc1Cl (stereo not shown) [Compound 27, 3-(3,4-dichlorophenyl)-1-phenyl-5-(pyridin-3-yl)-4,5-dihydro-1H-pyrazole]	> 75	67.9 (≈ 25 µg/mL)	–	184	21.7 (≈ 8 µg/mL)	–	211 ± 2	21.7 (≈ 8 µg/mL)	–	–	–	–	–	–	–	–	–
Clc1ccc(C2=NN(c3ccccc3)C(c3ccncc3)C2)cc1Cl (stereo not shown) [Compound 28, 3-(3,4-dichlorophenyl)-1-phenyl-5-(pyridin-4-yl)-4,5-dihydro-1H-pyrazole]	> 75	67.9 (≈ 25 µg/mL)	–	214	21.7 (≈ 8 µg/mL)	–	173 ± 2	21.7 (≈ 8 µg/mL)	–	–	–	–	–	–	–	–	–
Clc1ccc(C2=NN(c3ccccc3)C(c3ccco3)C2)cc1Cl (stereo not shown) [Compound 29, 3-(3,4-dichlorophenyl)-1-phenyl-5-(furan-2-yl)-4,5-dihydro-1H-pyrazole]	> 75	17.5 (≈ 6.25 µg/mL)	–	200	11.2 (≈ 4 µg/mL)	–	162 ± 2	11.2 (≈ 4 µg/mL)	–	2.6	–	–	–	–	–	–	–
Clc1ccc(C2=NN(c3ccccc3)C(c3ccc[nH]3)C2)cc1Cl (stereo not shown) [Compound 30, 3-(3,4-dichlorophenyl)-1-phenyl-5-(1H-pyrrol-2-yl)-4,5-dihydro-1H-pyrazole]	> 75	70.2 (≈ 25 µg/mL)	–	171	44.9 (≈ 16 µg/mL)	–	84 ± 2	44.9 (≈ 16 µg/mL)	–	–	1.5	–	–	–	–	–	–
Clc1ccc(C2=NN(c3ccccc3)C(c3cccs3)C2)cc1Cl (stereo not shown) [Compound 31, 3-(3,4-dichlorophenyl)-1-phenyl-5-(thiophen-2-yl)-4,5-dihydro-1H-pyrazole]	–	8.35 (≈ 3.12 µg/mL)	–	212	5.35 (≈ 2 µg/mL)	–	32 ± 1	5.35 (≈ 2 µg/mL)	–	2.6	–	> 75	3.7	2.6	4.9	2.6	–
CN(Cc1cnc2nc(N)nc(N)c2n1)c1ccc(C(=O)N[C@@H](CCC(=O)O)C(=O)O)cc1 [Methotrexate, reference compound]	> 75	–	–	–	–	–	11 ± 1	–	–	–	–	–	–	–	–	–	>75
